Assay results taken from PMC6009853, “Inhibition studies on a panel of human carbonic anhydrases with N1-substituted secondary sulfonamides incorporating thiazolinone or imidazolone-indole tails” (Journal of Enzyme Inhibition and Medicinal Chemistry, 2018).
Read-outs that look alike come from different tables or passages of the source.

Assays:
[1] = stopped-flow CO2 hydrase assay; type: biochemical, Homo sapiens; conditions: read-out: hCA I
hCA I = target: T1, hCA I (Homo sapiens, UniProt P00915); test: stopped-flow CO2 hydrase assay; type: biochemical
T1 construct: gene CA1; recombinant, obtained in-house; cytosolic
T1 sequence (P00915 2-261): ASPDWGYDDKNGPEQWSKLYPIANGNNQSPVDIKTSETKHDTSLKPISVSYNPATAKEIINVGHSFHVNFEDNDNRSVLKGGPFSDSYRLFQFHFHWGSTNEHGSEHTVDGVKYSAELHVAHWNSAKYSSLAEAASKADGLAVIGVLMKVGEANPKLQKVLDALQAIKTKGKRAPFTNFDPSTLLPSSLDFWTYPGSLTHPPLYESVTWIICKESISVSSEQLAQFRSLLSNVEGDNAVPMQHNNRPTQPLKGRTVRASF
From the text: stopped-flow CO2 hydrase assay on hCA I

hCA IX [2] = target: T2, hCA IX (Homo sapiens, UniProt Q16790); test: stopped-flow CO2 hydrase assay; type: biochemical; conditions: read-out: hCA I
T2 construct: gene CA9; recombinant, obtained in-house; tumour-associated isoform

hCA IV = target: T3, hCA IV (Homo sapiens, UniProt P22748); test: stopped-flow CO2 hydrase assay; type: biochemical
T3 construct: gene CA4; recombinant, obtained in-house; membrane-associated isoform
T3 sequence (P22748 19-284): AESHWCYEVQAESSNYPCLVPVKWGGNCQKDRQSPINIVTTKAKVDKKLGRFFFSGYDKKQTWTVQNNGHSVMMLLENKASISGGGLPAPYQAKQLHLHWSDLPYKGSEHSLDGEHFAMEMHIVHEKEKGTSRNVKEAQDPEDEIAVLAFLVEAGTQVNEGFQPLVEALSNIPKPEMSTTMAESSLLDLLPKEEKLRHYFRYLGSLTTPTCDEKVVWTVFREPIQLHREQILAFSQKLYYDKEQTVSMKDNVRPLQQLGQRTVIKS

hCA IX [3] = target: T2, hCA IX; test: stopped-flow CO2 hydrase assay; type: biochemical
From the text: stopped-flow CO2 hydrase assay on hCA IX

hCA II = target: T4, hCA II (Homo sapiens, UniProt P00918); test: stopped-flow CO2 hydrase assay; type: biochemical
T4 construct: gene CA2; recombinant, obtained in-house
From the text: stopped-flow CO2 hydrase assay on hCA II

Row | SMILES | Ki [1] [µM] | Ki (hCA I) [µM] | Ki (hCA IX [2]) [µM] | Ki (hCA IV; read-out: hCA IV) [µM] | Ki (hCA IX [3]) [µM] | Ki (hCA II) [µM] | Ki (hCA IV; read-out: hCA II) [µM]
1 | O=C1N=C(Nc2ccc(S(=O)(=O)Nc3ccccn3)cc2)SC1=Cc1c[nH]c2ccccc12 [7d] | > 10 | > 10 | > 10 | > 10 |  |  | 
2 | COc1ccc(C2=NC(=Cc3cn(C(C)=O)c4ccccc34)C(=O)N2c2ccc(S(=O)(=O)NC(=N)N)cc2)cc1 [10l, 4-[4-((1-Acetyl-1H-indol-3-yl)methylene)-2–(4-methoxyphenyl)-5-oxo-4,5-dihydro-1H-imidazol-1-yl]-N-carbamimidoylbenzenesulfonamide] |  | 6.9 |  |  | 1.21 | > 10 | > 10
3 | O=S(=O)(Nc1nccs1)c1ccc(N=Cc2c[nH]c3ccccc23)cc1 [4e] | > 10 | > 10 | > 10 | > 10 |  |  | 
4 | O=S(=O)(Nc1ncccn1)c1ccc(N=Cc2c[nH]c3ccccc23)cc1 [4c] | > 10 | > 10 | > 10 | > 10 |  |  | 
5 | N=C(N)NS(=O)(=O)c1ccc(N=Cc2c[nH]c3ccccc23)cc1 [4f, 4-{[(1H-indol-3-yl)methylene]amino}-N-carbamimidoylbenzenesulfonamide] |  | 7.53 |  | > 10 | 1.31 | 8.29 | 
6 | CC(=O)n1cc(C=C2N=C(c3ccccc3)N(c3ccc(S(=O)(=O)N=C(N)N)cc3)C2=O)c2ccccc21 [10f, 4-[4-((1-Acetyl-1H-indol-3-yl)methylene)-5-oxo-2-phenyl-4,5-dihydro-1H-imidazol-1-yl]-N-carbamimidoylbenzenesulfonamide] |  | 5.76 |  | > 10 | 1.64 | 3.82 | 
7 | O=S(=O)(Nc1ccccn1)c1ccc(N=Cc2c[nH]c3ccccc23)cc1 [4d] | > 10 | > 10 | > 10 | > 10 |  |  | 
8 | COc1ccc(C2=NC(=Cc3cn(C(C)=O)c4ccccc34)C(=O)N2c2ccc(S(N)(=O)=O)cc2)cc1 [10g, 4-[4-((1-Acetyl-1H-indol-3-yl)methylene)-2–(4-methoxyphenyl)-5-oxo-4,5-dihydro-1H-imidazol-1-yl]benzenesulfonamide] |  | 0.0937 |  | 2.77 | 0.328 | 0.602 | 
9 | CC(=O)n1cc(C=C2N=C(c3ccccc3)N(c3ccc(S(=O)(=O)Nc4nccs4)cc3)C2=O)c2ccccc21 [10e, 4-[4-((1-Acetyl-1H-indol-3-yl)methylene)-5-oxo-2-phenyl-4,5-dihydro-1H-imidazol-1-yl]-N-(thiazol-2-yl)benzenesulfonamide] | > 10 | > 10 | > 10 | > 10 |  |  | 
10 | COc1ccc(C2=NC(=Cc3cn(C(C)=O)c4ccccc34)C(=O)N2c2ccc(S(=O)(=O)Nc3nccs3)cc2)cc1 [10k, 4-[4-((1-Acetyl-1H-indol-3-yl)methylene)-2–(4-methoxyphenyl)-5-oxo-4,5-dihydro-1H-imidazol-1-yl]-N-(thiazol-2-yl)benzenesulfonamide] | > 10 | > 10 | > 10 | > 10 |  |  | 
11 | COc1ccc(C2=NC(=Cc3cn(C(C)=O)c4ccccc34)C(=O)N2c2ccc(S(=O)(=O)NC(C)=O)cc2)cc1 [10h, N-[(4–(4-((1-acetyl-1H-indol-3-yl)methylene)-2–(4-methoxyphenyl)-5-oxo-4,5-dihydro-1H-imidazol-1-yl)phenyl)sulfonyl]acetamide] |  | 5.72 |  | 3.05 | 1.4 | 0.549 | 
12 | CC(=O)NS(=O)(=O)c1ccc(N2C(=O)C(=Cc3cn(C(C)=O)c4ccccc34)N=C2c2ccccc2)cc1 [10b, N-[(4–(4-((1-acetyl-1H-indol-3-yl)methylene)-5-oxo-2-phenyl-4,5-dihydro-1H-imidazol-1-yl)phenyl)sulfonyl]acetamide] |  |  |  | > 10 | 1.47 |  | 
13 | CC(=O)NS(=O)(=O)c1ccc(N=Cc2c[nH]c3ccccc23)cc1 [4b, N-{[4-(((1H-indol-3-yl)methylene)amino)phenyl]sulfonyl}acetamide] |  | 8.58 |  |  | 1.62 | > 10 | > 10
14 | COc1ccc(C2=NC(=Cc3cn(C(C)=O)c4ccccc34)C(=O)N2c2ccc(S(=O)(=O)Nc3ccccn3)cc2)cc1 [10j, 4-[4-((1-Acetyl-1H-indol-3-yl)methylene)-2–(4-methoxyphenyl)-5-oxo-4,5-dihydro-1H-imidazol-1-yl]-N-(pyridin-2-yl)benzenesulfonamide] | > 10 | > 10 | > 10 | > 10 |  |  | 
15 | CC(=O)n1cc(C=C2N=C(c3ccccc3)N(c3ccc(S(=O)(=O)Nc4ccccn4)cc3)C2=O)c2ccccc21 [10d] | > 10 | > 10 | > 10 | > 10 |  |  | 
16 | NS(=O)(=O)c1ccc(N=Cc2c[nH]c3ccccc23)cc1 [4a, 4-{[(1H-indol-3-yl)methylene]amino}benzenesulfonamide] |  | 0.0885 |  | 2.74 | 0.327 | 0.576 | 
17 | N=C(N)NS(=O)(=O)c1ccc(NC2=NC(=O)C(=Cc3c[nH]c4ccccc34)S2)cc1 [7f, 4-{[5-((1H-indol-3-yl)methylene)-4-oxo-4,5-dihydrothiazol-2-yl]amino}-N-carbamimidoyl benzenesulfonamide] |  | 9.07 |  | > 10 | 1.4 | 7.18 | 
18 | NS(=O)(=O)c1ccc(NC2=NC(=O)C(=Cc3c[nH]c4ccccc34)S2)cc1 [7a, 4-{[5-((1H-indol-3-yl)methylene)-4-oxo-4,5-dihydrothiazol-2-yl]amino}benzenesulfonamide] |  | 0.0964 |  | 4.43 | 0.308 | 0.0764 | 
19 | CC(=O)n1cc(C=C2N=C(c3ccccc3)N(c3ccc(S(N)(=O)=O)cc3)C2=O)c2ccccc21 [10a, 4-[4-((1-Acetyl-1H-indol-3-yl)methylene)-5-oxo-2-phenyl-4,5-dihydro-1H-imidazol-1-yl]benzenesulfonamide] |  |  |  | 0.263 | 0.318 |  | 
20 | COc1ccc(C2=NC(=Cc3cn(C(C)=O)c4ccccc34)C(=O)N2c2ccc(S(=O)(=O)Nc3ncccn3)cc2)cc1 [10i, 4-[4-((1-Acetyl-1H-indol-3-yl)methylene)-2–(4-methoxyphenyl)-5-oxo-4,5-dihydro-1H-imidazol-1-yl]-N-(pyrimidin-2-yl)benzenesulfonamide] | > 10 | > 10 | > 10 | > 10 |  |  | 
21 | CC(=O)NS(=O)(=O)c1ccc(NC2=NC(=O)C(=Cc3c[nH]c4ccccc34)S2)cc1 [7b, N-{[4-((5-((1H-indol-3-yl)methylene)-4-oxo-4,5-dihydrothiazol-2-yl)amino)phenyl]sulfonyl} acetamide] |  | 7.98 |  |  | 0.778 | > 10 | > 10
22 | O=C1N=C(Nc2ccc(S(=O)(=O)Nc3nccs3)cc2)SC1=Cc1c[nH]c2ccccc12 [7e, 4-{[(5-((1H-indol-3-yl)methylene)-4-oxo-4,5-dihydrothiazol-2-yl)amino]-N-(thiazol-2-yl)] benzenesulfonamide] | > 10 | > 10 | > 10 | > 10 |  |  | 
23 | CC(=O)n1cc(C=C2N=C(c3ccccc3)N(c3ccc(S(=O)(=O)Nc4ncccn4)cc3)C2=O)c2ccccc21 [10c, 4-[4-((1-Acetyl-1H-indol-3-yl)methylene)-5-oxo-2-phenyl-4,5-dihydro-1H-imidazol-1-yl]-N-(pyrimidin-2-yl)benzenesulfonamide] | > 10 | > 10 | > 10 | > 10 |  |  | 
24 | O=C1N=C(Nc2ccc(S(=O)(=O)Nc3ncccn3)cc2)SC1=Cc1c[nH]c2ccccc12 [7c] | > 10 | > 10 | > 10 | > 10 |  |  | 
